Data from patent US6967196B1, “Sulfonamide compounds and uses thereof” (Bristol-Myers Squibb Company, priority 1999, dated 2005).
pIC50: −log10 of the molar value. Counter-ions that a name gives are not always drawn.

The compounds below were run on amyloid β production in transfected H4 (human neuroglioma) cells stably expressing APP constructs (assay: In vitro cell-based assay of inhibitors of amyloid β production (ELISA)). Conditions: Homo sapiens, 16 h, transfected H4 cells expressing APP, approximately 16 hours incubation, amyloid β in medium by ELISA; read-out: ACTIVITY (IC50, inhibition of amyloid β production).
Procedure, shortened: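 Sandwich ELISA read-out: Aβ in conditioned medium captured via C-terminal epitope mAb, detected with N-terminus-specific rabbit polyclonal, quantified from a standard curve. Compounds 10-100 μM, ~16 h exposure. Active = ≥50% inhibition vs control without significant cytotoxicity; dose-response follows.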

Q: C[C@H](C(=O)Nc1cc(Cl)ccc1O)N(c1cc(Cl)ccc1F)S(=O)(=O)c1ccc(Cl)cc1 [Example 1336] was tested. Which pIC50 did it give?
A: < 6.30

Q: With CCC(C)(C)c1ccc(OCCCCNC(=O)[C@@H](C)N(c2cc(Cl)ccc2F)S(=O)(=O)c2ccc(Cl)cc2)c(C(C)(C)CC)c1 [Example 1348] as the compound, how does the pIC50 read?
A: < 6.30

Q: C[C@H](C(=O)NCCCCO)N(c1cc(Cl)ccc1F)S(=O)(=O)c1ccc(Cl)cc1 [Example 1360] was tested. Which pIC50 did it give?
A: 6.30 to 7.00

Q: With C[C@H](C(=O)NC[C@@H]1CC[C@H]2C[C@@H]1C2(C)C)N(c1cc(Cl)ccc1F)S(=O)(=O)c1ccc(Cl)cc1 [Example 1323] as the compound, how does the pIC50 read?
A: < 6.30

Same assay, conditions: Homo sapiens, 16 h, transfected H4 cells stably expressing APP constructs; approximately 16 hours incubation; amyloid β in medium by ELISA; read-out: ACTIVITY (IC50, inhibition of amyloid β production)

Q: CN(C)CCCOc1ccccc1CN(c1ccccc1)S(=O)(=O)c1cccc2c(N(C)C)cccc12 [Example 1085, 5-(dimethylamino)-N-{2-[3-(dimethylamino)propoxy]benzyl}-N-phenyl-1-naphthalenesulfonamide] was tested. Which pIC50 did it give?
A: < 5.00

Same assay, conditions: Homo sapiens, 16 h, transfected H4 cells stably expressing APP; approximately 16 hours incubation; amyloid β in medium by ELISA; Table B; read-out: ACTIVITY (IC50, inhibition of amyloid β production)

Q: How did the pIC50 turn out when C[C@H](c1ccccc1CCC(=O)NC1CCCc2ccccc21)N(c1cc(F)ccc1F)S(=O)(=O)c1ccc(Cl)cc1 (stereo partly drawn) [Example 406, 3-[2-((1R)-1-{[(4-chlorophenyl)sulfonyl]-2,5-difluoroanilino}ethyl)phenyl]-N-(1,2,3,4-tetrahydro-1-naphthalenyl)propanamide] was run?
A: 7.00 to 7.30

Same assay, conditions: Homo sapiens, 16 h, transfected H4 cells stably expressing APP; approximately 16 hours incubation; amyloid β in medium by ELISA; read-out: ACTIVITY (IC50, inhibition of amyloid β production)

Q: How did the pIC50 turn out when C[C@H](c1ccccc1CCCn1cncn1)N(c1cc(F)ccc1F)S(=O)(=O)c1ccc(Cl)cc1 [Example 1066, 4-chloro-N-(2,5-difluorophenyl)-N-((1R)-1-{2-[3-(1H-1,2,4-triazol-1-yl)propyl]phenyl}ethyl)benzenesulfonamide] was run?
A: < 6.30

Q: With O=S(=O)(c1ccc(Cl)cc1)N(CCc1ccccc1O)c1ccccc1 [Example 1015, 4-chloro-N-[2-(2-hydroxyphenyl)ethyl]-N-phenylbenzenesulfonamide] as the compound, how does the pIC50 read?
A: < 6.30

Same assay, conditions: Table B; transfected H4 cells stably expressing APP; approximately 16 hours incubation; amyloid β in medium by ELISA; read-out: ACTIVITY (inhibitory concentration IC50, inhibition of amyloid β production)

Q: With COC(=O)C[S+]([O-])C[C@@H](C)N(c1cc(Cl)ccc1Cl)S(=O)(=O)c1ccc(Cl)cc1 (stereo partly drawn) [Example 178, Methyl(5R)-5-[(2,5-dichlorophenyl)[(4-chlorophenyl)sulfonyl]amino]-3-thiohexanoate,3 Oxide] as the compound, how does the pIC50 read?
A: ≥ 7.60

Q: With C[C@H](CCNc1c(NCC[C@@H](C)N(c2cc(F)ccc2F)S(=O)(=O)c2ccc(Cl)cc2)c(=O)c1=O)N(c1cc(F)ccc1F)S(=O)(=O)c1ccc(Cl)cc1 [Example 132, 4-Chloro-N-(2,5-difluorophenyl)-N-[3-[2-[4-chloro-N-(2,5-difluorophenyl)-N-[(3-amino)-1(R)-methylpropyl]benzenesulfonamide]-3,4-dioxo-1-cyclobutenyl]amine-1(R)-methylpropyl]benzenesulfonamide] as the compound, how does the pIC50 read?
A: ≥ 7.60

Q: C[C@H](CCCS(=O)(=O)Cl)N(c1cc(Cl)ccc1CO)S(=O)(=O)c1ccc(Cl)cc1 [Example 12] was tested. Which pIC50 did it give?
A: ≥ 7.60

Same assay, conditions: transfected H4 cells expressing APP, approximately 16 hours incubation, amyloid β in medium by ELISA; read-out: ACTIVITY (IC50, inhibition of amyloid β production)

Q: C[C@H](C(=O)NCc1cc(F)ccc1F)N(c1cc(Cl)ccc1F)S(=O)(=O)c1ccc(Cl)cc1 [Example 1356] was tested. Which pIC50 did it give?
A: < 6.30

Same assay, conditions: transfected H4 cells stably expressing APP constructs; approximately 16 hours incubation; amyloid β in medium by ELISA; read-out: ACTIVITY (IC50, inhibition of amyloid β production)

Q: C[C@H](CCCSc1ccccc1)N(c1cc(Cl)ccc1CO)S(=O)(=O)c1ccc(Cl)cc1 [Example 1226, 4-chloro-N-[5-chloro-2-(hydroxymethyl)phenyl]-N-[1(R)-methyl-(4-phenylthio)butyl]benzenesulfonamide] was tested. Which pIC50 did it give?
A: ≥ 7.60

Q: How did the pIC50 turn out when CC1CS(=O)(=O)CCN1C(=O)CCCC[C@@H](C)N(c1cc(Cl)ccc1F)S(=O)(=O)c1ccc(Cl)cc1 (stereo partly shown) [Example 1273] was run?
A: ≥ 7.60

Q: With C[C@H](COC(=O)NCCCn1ccnc1)N(c1cc(F)ccc1F)S(=O)(=O)c1ccc(Cl)cc1 [Example 1239, 4-Chloro-N-(2,5-difluorophenyl)-N-[2-[[N′-[3-(1H-imidazol-1-yl)propylamino]carbonyl]oxy]-(R)-1-methylethyl]benzenesulfonamide] as the compound, how does the pIC50 read?
A: ≥ 7.60

Q: How did the pIC50 turn out when CC([C@@H]1CCCN1)N(c1cc(Cl)ccc1Cl)S(=O)(=O)c1ccc(Cl)cc1 (stereo partly shown) [Example 1254] was run?
A: < 6.30

Q: How did the pIC50 turn out when COC(=O)C1SCCN1CC[C@@H](C)N(c1cc(Cl)ccc1Cl)S(=O)(=O)c1ccc(Cl)cc1 (stereo partly drawn) [Example 1133, 4-chloro-N-(2,5-dichlorophenyl)-N-[3-(2-methoxycarbonyl-3-thiazolidinyl)-1(R)-methylpropyl]benzenesulfonamide] was run?
A: 7.00 to 7.30

Q: C[C@H](CCCN(CCCn1ccnc1)CC1CC1)N(c1cc(Cl)ccc1Cl)S(=O)(=O)c1ccc(Cl)cc1 [Example 1135] was tested. Which pIC50 did it give?
A: 6.30 to 7.00

Q: C[C@H](CCCS(C)(=O)=O)N(c1cc(Cl)ccc1CO)S(=O)(=O)c1ccc(S(C)(=O)=O)cc1 [Example 1230] was tested. Which pIC50 did it give?
A: 7.30 to 7.60

Q: CC[S+]([O-])CCC[C@@H](C)N(c1cc(F)ccc1F)S(=O)(=O)c1ccc(Cl)cc1 (stereo partly drawn) [Example 1174, 4-chloro-N-[2,5-difluorophenyl]-N-[1(R)-methyl-(4-ethylsulfinyl)butyl]benzenesulfonamide] was tested. Which pIC50 did it give?
A: ≥ 7.60

Same assay, conditions: transfected H4 cells stably expressing APP; approx. 16 h incubation; amyloid β in medium by ELISA; read-out: ACTIVITY (IC50, inhibition of amyloid β production)

Q: With “isobutyl 3-[2-(1-{[(4-chlorophenyl)sulfonyl]-2,5-difluoroanilino}ethyl)phenoxy]propyl(methyl)carbamate [Example 677]” as the compound, how does the pIC50 read?
A: 6.30 to 7.00

Q: “2-((1R)-1-{[(4-chlorophenyl)sulfonyl]-2,5-difluoroanilino}ethyl)-5-fluorobenzyl 2-methoxyethylcarbamate [Example 729]” was tested. Which pIC50 did it give?
A: 6.30 to 7.00

Q: How did the pIC50 turn out when “2-[2-((1R)-1-{[(4-chlorophenyl)sulfonyl]-2,5-difluoroanilino}ethyl)phenyl]ethyl 1,2,3,4-tetrahydro-1-naphthalenylcarbamate [Example 644]” was run?
A: 6.30 to 7.00

Q: CC(c1ccccc1OCCN(C)S(=O)(=O)CC(F)(F)F)N(c1cc(F)ccc1F)S(=O)(=O)c1ccc(Cl)cc1 (stereo not shown) [Example 701, 4-chloro-N-(2,5-difluorophenyl)-N-{1-[2-(2-{methyl[(2,2,2-trifluorophenyl)sulfonyl]amino}ethoxy)phenyl]ethyl}benzenesulfonamide] was tested. Which pIC50 did it give?
A: 6.30 to 7.00

Q: CC(c1ccccc1OCCCN(C)C(=O)c1ccccc1I)N(c1cc(F)ccc1F)S(=O)(=O)c1ccc(Cl)cc1 (stereo not shown) [Example 637] was tested. Which pIC50 did it give?
A: 6.30 to 7.00

Same assay, conditions: transfected H4 cells stably expressing APP; approximately 16 hours incubation; amyloid β in medium by ELISA; Table B; read-out: ACTIVITY (IC50, inhibition of amyloid β production)

Q: With O=S(=O)(c1ccc(Cl)cc1)N(Cc1ccccc1OCCCNC1CC1)c1ccccc1 [Example 297, 4-Chloro-N-{2-[3-(cyclopropylamino)propoxy]benzyl}-N-phenylbenzenesulfonamide Hydrochloride] as the compound, how does the pIC50 read?
A: 7.00 to 7.30

Q: How did the pIC50 turn out when CC(c1ccccc1OCCCN(C)C(=O)c1cccnc1)N(c1cc(F)ccc1F)S(=O)(=O)c1ccc(Cl)cc1 (stereo not shown) [Example 360, N-{3-[2-(1-{[(4-chlorophenyl)sulfonyl]-2,5-difluoroanilino}ethyl)phenoxy]propyl}-N-methylnicotinamide] was run?
A: 7.00 to 7.30

Q: How did the pIC50 turn out when CN1C2CCC1[C@@H](COc1ccccc1CN(c1ccccc1)S(=O)(=O)c1ccc(Cl)cc1)C2 (stereo partly drawn) [Example 300, 4-Chloro-N-(2-{[(2S)-7-methyl-7-azabicyclo[2.2.1]hept-2-yl]methoxy]benzyl)-N-phenylbenzenesulfonamide Hydrochloride] was run?
A: 7.00 to 7.30

Q: With CN(CCCOc1ccccc1CN(c1cc(F)ccc1F)S(=O)(=O)c1ccc(Cl)cc1)C(=O)CCCCCN [Example 366, 6-Amino-N-{3-[2-({[(4-chlorophenyl)sulfonyl]-2,5-difluoroanilino}methyl)phenoxy]propyl]-N-methylhexanamide Hydrochloride] as the compound, how does the pIC50 read?
A: 7.00 to 7.30

Q: How did the pIC50 turn out when CNC(=O)COc1ccccc1C(C)N(c1cc(F)ccc1F)S(=O)(=O)c1ccc(Cl)cc1 (stereo not shown) [Example 381, [2-(1-{[(4-Chlorophenyl)sulfonyl]-2,5-difluoroanilino}ethyl)phenoxy]-N-methylacetamide] was run?
A: 7.00 to 7.30

Same assay, conditions: transfected H4 cells stably expressing APP; approximately 16 hours incubation; amyloid β in medium by ELISA; read-out: ACTIVITY (IC50, inhibition of amyloid β production)

Q: How did the pIC50 turn out when “ethyl (2R)-2-{[(4-chlorophenyl)sulfonyl]-2,5-difluoroanilino}propanoate [Example 1060]” was run?
A: < 6.30

Q: How did the pIC50 turn out when “4-chloro-N-(2,5-difluorophenyl)-N-{2-[3-(1-piperidinyl)propyl]benzyl}-N-phenylbenzenesulfonamide [Example 1044]” was run?
A: < 6.30

Q: C[C@H](c1ccc(CCCCNS(C)(=O)=O)cc1)N(c1cc(F)ccc1F)S(=O)(=O)c1ccc(Cl)cc1 [Example 1074] was tested. Which pIC50 did it give?
A: < 6.30

Q: With O=S(=O)(c1ccc(Cl)cc1)N(Cc1c(OCCCN2CCCCC2)ccc2ccccc12)c1cc(F)ccc1F [Example 1025, 4-chloro-N-(2,5-difluorophenyl)-N-(2-{2-[3-(1-piperidinyl)propoxy]-1-naphthyl}methyl)benzenesulfonamide hydrochloride] as the compound, how does the pIC50 read?
A: < 6.30

Q: With “2,4-dichloro-N-{3-[2-(1-{[(4-chlorophenyl)sulfonyl]-2,5-difluoroanilino}ethyl)phenoxy]propyl}-N-methylbenzamide [Example 839]” as the compound, how does the pIC50 read?
A: 6.30 to 7.00

Q: How did the pIC50 turn out when COC(=O)[C@H](c1ccccc1)N(c1cc(F)ccc1F)S(=O)(=O)c1ccc(Cl)cc1 [Example 987, methyl (2S)-1-{[(4-chlorophenyl)sulfonyl]-2,5-difluoroanilino}(phenyl)ethanoate] was run?
A: < 6.30

Q: How did the pIC50 turn out when “3,4-dichloro-N-{3-[2-(1-{[(4-chlorophenyl)sulfonyl]-2,5-difluoroanilino}ethyl)phenoxy]propyl}-N-methylbenzenesulfonamide [Example 822]” was run?
A: 6.30 to 7.00
